For 2 compounds, IC50 results are on record in ChEMBL document CHEMBL5030517, “6-Halopyridylmethylidene Penicillin-Based Sulfones Efficiently Inactivate the Natural Resistance of Pseudomonas aeruginosa to β-Lactam Antibiotics” (J Med Chem, 2021).

As usually defined, the IC50 is the midpoint of a concentration-inhibition curve.

The structures appear in SMILES notation.

A short description of the assay: Inhibition beta lactamase PDC-1 in Pseudomonas aeruginosa PAO1 using nitrocefin as substrate measured by 96 well microtitre plate.

`CC1(C)[C@H](C(=O)O)N2C(=O)C[C@H]2S1(=O)=O` [SULBACTAM] yielded an IC50 of 4.37 µM.
The figure for `O=C(O)[C@H]1/C(=C/CO)O[C@@H]2CC(=O)N21` [CLAVULANIC ACID] is over 200 µM.
